Values after ≈ are worked out from the molar mass of the structure shown. Read-outs that look alike come from different tables or passages of the source.
Assays:
Assay type in all cases: cell-based
E. coli strains = assay: MIC against E. coli strains (Table M7); settings: Escherichia coli, ATCC25922, E. coli ATCC 25922
Excerpt: (§1) We have collected MIC data for a total of 50 novel macrolides that this platform has produced against over 21 unique strains of B. subtilis, E. coli, S. aureus, S. pneumoniae, and H. influenzae, including several multidrug-resistant strains, with a special focus on macrolide resistant mechanisms (vide supra). Azithromycin was included as a control macrolide. CLSI standard procedures for broth dilution MIC determination were used. […] These genotypes can be constitutive or inducible. The finding that C4-epi (unnatural) isomers of the “azaketolide” macrolide class have enhanced activities relative to C4 natural isomers is very exciting.

A. baumannii strains = assay: MIC against A. baumannii strains (Table M8); settings: Acinetobacter baumannii, BAA747, A. baumannii BAA747-1
S. pneumoniae strains = assay: MIC against S. pneumoniae strains (Tables M7, M8); settings: for MIC: Streptococcus pneumoniae
Excerpt: CLSI standard procedures for broth dilution MIC determination were used. […] These genotypes can be constitutive or inducible.

H. influenzae strains = assay: MIC against H. influenzae strains (Table M8); settings: Haemophilus influenzae
Excerpt: as §1

S. aureus strains = assay: MIC against S. aureus strains (Table M7); settings: Staphylococcus aureus
Excerpt: as §1

E. faecalis strains = assay: MIC against E. faecalis strains (Table M8); settings: Enterococcus faecalis, E. faecalis 29212
K. pneumoniae strains = assay: MIC against K. pneumoniae strains (Table M8); settings: Klebsiella pneumoniae, K. pneumoniae 10031
[1] = S. pneumoniae 160, read-out: MIC S. pneumonae (160)
[2] = S. pneumoniae 1509, read-out: MIC S. pneumoniae (1509)
[3] = S. pneumoniae 1533, read-out: MIC S. pneumoniae (1533)
[4] = S. pneumoniae 1537, read-out: MIC S. pneumoniae (1537)
[5] = S. pneumoniae 49619, read-out: MIC S. pneumoniae (49619)
[6] = H. influenzae 49247, read-out: MIC H. influenzae (49247)
[7] = H. influenzae 49766, read-out: MIC H. influenzae (49766)
[8] = ATCC29213, S. aureus ATCC 29213, read-out: MIC S. aureus (ATCC 29213)
[9] = S. aureus 183, read-out: MIC S. aureus (183)
[10] = S. aureus 506, read-out: MIC S. aureus (506)
[11] = S. aureus 1708, read-out: MIC S. aureus (1708)
[12] = USA300, S. aureus USA300, read-out: MIC S. aureus (USA300)

Row | Compound | MIC (E. coli strains) [µg/mL] | MIC (A. baumannii strains) [µg/mL] | MIC (S. pneumoniae strains; [1]) [µg/mL] | MIC (S. pneumoniae strains; [2]) [µg/mL] | MIC (S. pneumoniae strains; [3]) [µg/mL] | MIC (S. pneumoniae strains; [4]) [µg/mL] | MIC (S. pneumoniae strains; [5]) [µg/mL] | MIC (H. influenzae strains; [6]) [µg/mL] | MIC (H. influenzae strains; [7]) [µg/mL] | MIC (S. aureus strains; [8]) [µg/mL] | MIC (S. aureus strains; [9]) [µg/mL] | MIC (S. aureus strains; [10]) [µg/mL] | MIC (S. aureus strains; [11]) [µg/mL] | MIC (S. aureus strains; [12]) [µg/mL] | MIC (E. faecalis strains) [µg/mL] | MIC (K. pneumoniae strains) [µg/mL] | MIC S. pneumoniae (49619) (S. pneumoniae strains; S. pneumoniae 49619) [µg/mL]
1 | CC[C@H]1OC(=O)[C@H](C)C(O)[C@H](C)[C@@H](O[C@@H]2OC(C)CC(N(C)C)C2O)[C@](C)(OC)C[C@@H](C)CN(C)[C@H](C)[C@H]2N(CCCCn3cc(-c4cccc(N)c4)nn3)C(=O)O[C@]12C (stereo partly drawn) [FSM-21335] | 32 (≈ 37.9 µM) | > 32 | 0.25 (≈ 0.296 µM) | > 32 | > 32 | > 32 | 1 (≈ 1.18 µM) | 4 (≈ 4.74 µM) | 32 (≈ 37.9 µM) | > 32 | > 32 | > 32 | > 32 | 32 (≈ 37.9 µM) | 16 (≈ 19 µM) | 4 (≈ 4.74 µM) | 
2 | CC[C@H]1OC(=O)[C@H](C)C(=O)[C@H](C)[C@@H](O[C@@H]2OC(C)CC(N(C)C)C2O)[C@](C)(OC)C[C@@H](C)CN(C)[C@H](C)[C@H]2N(CCCCn3cc(-c4cccc(N)c4)nn3)C(=O)O[C@]12C (stereo partly drawn) [FSM-21339] | 16 (≈ 19 µM) | 32 (≈ 38 µM) | 0.125 (≈ 0.148 µM) | 1 (≈ 1.19 µM) | > 32 | > 32 | ≤ 0.0625 | 2 (≈ 2.38 µM) | 8 (≈ 9.5 µM) | 2 (≈ 2.38 µM) | > 32 | > 32 | 4 (≈ 4.75 µM) | 2 (≈ 2.38 µM) | 0.5 (≈ 0.594 µM) | 4 (≈ 4.75 µM) | 
3 | CC[C@H]1OC(=O)[C@H](C)C(O)[C@H](C)[C@@H](O[C@@H]2OC(C)CC(N(C)C)C2O)[C@](C)(OC)C[C@@H](C)CN[C@H](C)[C@H]2N(CCCCn3cc(-c4cccc(N)c4)nn3)C(=O)O[C@]12C (stereo partly drawn) [FSM-21340] | 4 (≈ 4.82 µM) | 8 (≈ 9.64 µM) | 0.5 (≈ 0.602 µM) | > 32 | > 32 | > 32 | 0.5 (≈ 0.602 µM) | 1 (≈ 1.2 µM) | 4 (≈ 4.82 µM) | 16 (≈ 19.3 µM) | > 32 | > 32 | > 32 | 16 (≈ 19.3 µM) | 8 (≈ 9.64 µM) | 2 (≈ 2.41 µM) | 
4 | CC[C@H]1OC(=O)C(C)C(=O)[C@H](C)[C@@H](O[C@@H]2OC(C)CC(N(C)C)C2O)[C@](C)(OC)C[C@@H](C)C(=O)N[C@H](C)[C@H]2N(CCCCn3cc(-c4cccc(N)c4)nn3)C(=O)O[C@]12C (stereo partly drawn) [FSM-21344] | > 32 | > 32 | 8 (≈ 9.5 µM) | 4 (≈ 4.75 µM) | > 32 | > 32 | 0.5 (≈ 0.594 µM) | 8 (≈ 9.5 µM) | 32 (≈ 38 µM) | > 32 | > 32 | > 32 | > 32 | > 32 | 16 (≈ 19 µM) | 16 (≈ 19 µM) | 
5 | C=CC[C@@]1(OC)C[C@@H](C)CN[C@H](C)[C@H]2N(CCCCn3cc(-c4cccc(N)c4)nn3)C(=O)O[C@]2(C)[C@@H](CC)OC(=O)[C@H](C)C(=O)[C@@H](C)[C@H]1O[C@@H]1OC(C)CC(N(C)C)C1O (stereo partly drawn) [FSM-21367] | 4 (≈ 4.68 µM) | 16 (≈ 18.7 µM) | 0.125 (≈ 0.146 µM) | 8 (≈ 9.37 µM) | > 32 | > 32 |  | 1 (≈ 1.17 µM) | 4 (≈ 4.68 µM) | 8 (≈ 9.37 µM) | > 32 | > 32 | 16 (≈ 18.7 µM) | 8 (≈ 9.37 µM) | 2 (≈ 2.34 µM) | 4 (≈ 4.68 µM) | 0.25 (≈ 0.293 µM)
6 | CC[C@H]1OC(=O)[C@H](C)C(=O)[C@H](C)[C@@H](O[C@@H]2OC(C)CC(N(C)C)C2O)[C@](C)(OC)C[C@@H](C)CCN[C@H](C)[C@H]2N(CCCCn3cc(-c4cccc(N)c4)nn3)C(=O)O[C@]12C (stereo partly drawn) [FSM-21397] | 16 (≈ 19 µM) | 16 (≈ 19 µM) | 0.25 (≈ 0.297 µM) | 4 (≈ 4.75 µM) | > 32 | > 32 | 0.125 (≈ 0.148 µM) | 2 (≈ 2.38 µM) | 4 (≈ 4.75 µM) | 2 (≈ 2.38 µM) | > 32 | > 32 | 2 (≈ 2.38 µM) | 2 (≈ 2.38 µM) | 0.5 (≈ 0.594 µM) | 4 (≈ 4.75 µM) | 
